Reference: US20230067910A1, “NOVEL COMPOUNDS FOR THE DIAGNOSIS, TREATMENT AND PREVENTION OF DISEASES ASSOCIATED WITH THE AGGREGATION OF ALPHA-SYNUCLEIN” (MODAG GMBH, priority 2019, published 2023)
“And” between values parts separate entries of the source, which are not always exact repeats. Identical values can stand only once. Like-named read-outs stand apart in the source and are kept apart here.

Assays:
[1] = molecular target: T1, aggregated Abeta (Homo sapiens, UniProt P05067); assay: Saturation binding assay, protocol 2a, Abeta fibrils; details: saturation assay protocol 2a, [3H]-labeled compound
T1 construct: Aβ1-42 was obtained from rPeptide; purchased rPeptide, Watkinsville, Ga., USA
T1 sequence (P05067 672-713 limits assumed): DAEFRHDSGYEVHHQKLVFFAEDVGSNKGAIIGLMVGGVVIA
Description: (§1) Alpha-synuclein and tau46 were purified from E. coli according to established protocols (Nuscher B, et al., J. Biol. Chem., 2004; 279(21):21966-75), Aβ1-42 was obtained from rPeptide, Watkinsville, Ga., USA. Fibrils were prepared by aggregation of recombinant protein via constant agitation. In detail, 70 μM of alpha-synuclein mixed with 100 mM NaCl in 50 mM Tris, pH 7.0+0.02% NaN3 were incubated at 1,400 rpm, 37° C. for 96 h. 10 μM of tau46 were incubated with 0.03 mg/ml heparin in 50 mM Tris, pH=7.0 at 1,000 rpm, 37° C. for 72 h. Aβ1-42 was solved in 20 mM NaPi, pH=8.0+0.2 mM EDTA+0.02% NaN3 (Deeg A A, et al., Biochim. Biophys. Acta, 2015; 1850(9): 1884-90; Goedert M, et al. Nature, 1996; 383(6600): 550-3).
Sonicated αSYN (0.04 μM) or tau46 (0.4 μM) or Aβ1-42 (6 μM) fibrils diluted in PBS were incubated with decreasing concentrations of [^3H]-labeled compound (48 nM or 24 nM-[…]) in 50 mM Tris-base, 10% ethanol, 0.05% Tween20, pH 7.4. […]
Assay plates were incubated under agitation at 37° C. for 2 h, covered by plastic foil (Resealable tape, PerkinElmer, Waltham, Mass., USA). […] Accumulation of tritium was counted in a liquid scintillation counter (Wallac MicroBeta® TriLux, 1450 LSC & Luminescence Counter, PerkinElmer, Waltham, Mass., USA) immediately. Radioactivity was plotted against the increasing tritium-labeled compound or cold compound concentrations. […]

[2] = molecular target: T2, alpha-synuclein (sonicated fibrils) (Homo sapiens, UniProt P37840); assay: Modified competition binding assay, protocol 3b, reference ligand [3H]-compound 2; details: Table 5, reference ligand [3H]-compound 2 (1 nM)
T2 construct: made in house; host or cells: E. coli
In short: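 Sonicated recombinant human αSYN fibrils (15 nM/well) incubated with 1 nM [3H]-compound 2 and serially diluted unlabeled competitor in 30 mM Tris-HCl, 10% ethanol, 0.05% Tween20, pH 7.4, 4.5 h at RT. Filtration readout; IC50 by non-linear regression, Ki calculated using KD 0.2 nM.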

[3] = molecular target: T3, alpha-synuclein (fibrils) (Homo sapiens, UniProt P37840); assay: Competition binding assay, protocol 3a, reference ligand [3H]-compound 1, alpha-synuclein fibrils; details: reference ligand [3H]-compound 1 (1 nM)
T3 construct: made in house; host or cells: E. coli
Description: as §1
A fixed concentration of sonicated human recombinant αSYN (200 nM/well) or tau46 (208 nM/well) fibrils diluted in phosphate buffered saline (PBS) were incubated in low binding plates (96 well micro test plate, Ratiolab GmbH, Dreieich, Germany) together with 1 nM [^3H]-compound 1 and 1:4 serial dilutions of the cold compound of interest starting from 1 μM diluted in 50 mM Tris-base, 10% EtOH, 0.05% Tween20, pH 7.4. For the calculation of Ki values the KD value of compound 1 toward sonicated human recombinant αSYN fibrils was set to 3 nM.
Assay plates were incubated under agitation at 37° C. for 2 h covered by plastic foil (Resealable tape, PerkinElmer, Waltham, Mass., USA). Prior to harvesting, a filter (Printed filtermat B, PerkinElmer, Waltham, Mass., USA) was incubated with 5 mg/mL polyethylenimine (PEI, Poly(ethyleneimine) solution, Sigma Aldrich Chemie GmbH, Taufkirchen, Germany) at 4° C. for 30 min. After incubation, bound and free ligands were separated by vacuum filtration using a harvester (Filtermate harvester, PerkinElmer, Waltham, Mass., USA). The filter was washed three times with buffer cooled to 4° C. and subsequently dried in the microwave for 2 min at medium power. The filter was sealed in a plastic bag (Sample bag for MicroBeta®, PerkinElmer, Waltham, Mass., USA) together with added scintillator (BETAPLATE SCINT, PerkinElmer, Waltham, Mass., USA). Accumulation of tritium was counted in a liquid scintillation counter (Wallac MicroBeta® TriLux, 1450 LSC & Luminescence Counter, PerkinElmer, Waltham, Mass., USA) immediately. Radioactivity was plotted against the increasing tritium-labeled compound or cold compound concentrations. Data points were fitted using nonlinear regression analysis in GraphPad Prism (GraphPad Software, Inc., Version 7.03, La Jolla, Calif., USA).
The fibril competition assay provides Ki values. Ki is a quantitative measure that represents the concentration of the non-radioactive tested compound (competitor ligand) required to replace 50% of a reference compound, in this case [H]-compound 1 (1 nM) or [H]-compound 2 (1 nM), which is bound to the target structures (1 nM), in our case recombinant alpha-synuclein and tau46 fibrils. This assay is suitable for a screening of non-radioactive ligands.

[4] = Experiment B, read-out: Ki (nM) alpha-synuclein (sonicated fibrils)

CN(C)c1ccc(-c2cc(-c3ccnc(Br)c3)[nH]n2)cc1 [Compound 1, 4-[3-(4-dimethylamino-phenyl)-1H-pyrazol-5-yl]-2-bromopyridine]
Kd [1]: > 100 nM
Ki [2]: 0.1 nM

Fc1cc(-c2cc(-c3ccc4c(c3)OCO4)n[nH]2)ccn1 [Compound 12, 4-[3-(1,3-benzodioxol-5-yl)-1H-pyrazol-5-yl]-2-fluoropyridine]
Ki ([3]; Experiment A, read-out: Ki (nM) alpha-synuclein (fibrils)): 47 nM and 42 nM
Ki [3, 4]: 9 nM
Ki [2]: 3.4 nM

CNc1ccc(-c2cc(-c3ccnc(Br)c3)[nH]n2)cc1 [Compound 2, 4-[5-(2-bromopyridin-4-yl)-1H-pyrazol-3-yl]-N-methylaniline]
Kd [1]: > 100 nM
Ki [3, 4]: < 2 nM
